We go through 13 molecules from ChEMBL document CHEMBL1134025, “Thiosugars. Part 9: synthesis and biological evaluation of some 4'-thio-L-arabino nucleoside analogues” (2001).

Assay [1] relates to Coxsackievirus B4. As to the kind of experiment: Cytotoxicity was evaluated against Coxsackie B4 virus at 200-400 uM; IA=inactive. In kind it is functional, organism-based.
Assay [2] has as its system Human betaherpesvirus 5. As to the kind of experiment: Cytotoxicity was evaluated against HCMV at 200-400 uM; IA=inactive. In kind it is functional, organism-based.
Assay [3] has as its system Human immunodeficiency virus 1. In words: Cytotoxicity was evaluated against HIV-1 at 200-400 uM; IA=inactive. In kind it is functional, organism-based.
In assay [4] the test system is Human alphaherpesvirus 2. As to the kind of experiment: Cytotoxicity was evaluated against HSV-2 at 200-400 uM; IA=inactive. In kind it is functional, organism-based.
Assay [5] deals with Human immunodeficiency virus 2. In words: Cytotoxicity was evaluated against HIV-2 at 200-400 uM; IA=inactive. In kind it is functional, organism-based.
Assay [6] deals with Human alphaherpesvirus 1. As to the kind of experiment: Cytotoxicity was evaluated against HSV-1 at 200-400 uM; IA=inactive. In kind it is functional, organism-based.
For assay [7], the system named is Human respirovirus 3. In words: Cytotoxicity was evaluated against Parainfluenza-3 virus at 200-400 uM; IA=inactive. In kind it is functional, organism-based.
Assay [8] relates to Punta Toro virus. In words: Cytotoxicity was evaluated against Punta Toro virus at 200-400 uM; IA=inactive. In kind it is functional, organism-based.
For assay [9], the system named is Mammalian orthoreovirus 1. As to the kind of experiment: Cytotoxicity was evaluated against Reo virus-1 at 200-400 uM; IA=inactive. In kind it is functional, organism-based. Conditions: reo virus type 1.
For assay [10], the system named is Respiratory syncytial virus. In words: Cytotoxicity was evaluated against Respiratory syncytial virus at 200-400 uM; IA=inactive. In kind it is functional, organism-based.
In assay [11] the test system is Sindbis virus. As to the kind of experiment: Cytotoxicity was evaluated against Sindbis virus at 200-400 uM; IA=inactive. In kind it is functional, organism-based.
Assay [12] concerns Human alphaherpesvirus 3. In words: Cytotoxicity was evaluated against VZV at 200-400 uM; IA=inactive. In kind it is functional, organism-based.
In assay [13] the test system is Vesicular stomatitis virus.
In the next assay the test system is Vaccinia virus. The conditions noted are these: Orthopoxvirus vaccinia.
In assay [14] the test system is Coxsackievirus B4. In words: Minimum inhibitory concentration required to reduce Coxsackie B4 virus induced cytopathogenicity by 50%. In kind it is functional. The conditions noted are these: Enterovirus B.
Assay [15] has as its system Human immunodeficiency virus 1. In words: Minimum inhibitory concentration required to reduce HIV-1 induced cytopathogenicity by 50%. In kind it is functional.
Assay [16] deals with Human betaherpesvirus 5. As to the kind of experiment: Minimum inhibitory concentration required to reduce HCMV induced cytopathogenicity by 50%. In kind it is functional. Background: Cytopathic effects are the visible damage that an infection or toxin causes in cultured cells.
Assay [17] has as its system Human alphaherpesvirus 1. As to the kind of experiment: Minimum inhibitory concentration required to reduce HSV-1 induced cytopathogenicity by 50%. In kind it is functional.
Assay [18] concerns Human alphaherpesvirus 2. As to the kind of experiment: Minimum inhibitory concentration required to reduce HSV-2 induced cytopathogenicity by 50%. In kind it is functional.
The test system of assay [19] is Human respirovirus 3. As to the kind of experiment: Minimum inhibitory concentration required to reduce Parainfluenza-3 virus induced cytopathogenicity by 50%. In kind it is functional.
The test system of assay [20] is Punta Toro virus. As to the kind of experiment: Minimum inhibitory concentration required to reduce Punta Toro virus induced cytopathogenicity by 50%. In kind it is functional.
In assay [21] the test system is Mammalian orthoreovirus 1. In words: Minimum inhibitory concentration required to reduce Reo virus-1 induced cytopathogenicity by 50%. In kind it is functional, reo virus type 1.
Assay [22] relates to Respiratory syncytial virus. In words: Minimum inhibitory concentration required to reduce Respiratory syncytial virus induced cytopathogenicity by 50%. In kind it is functional. The conditions noted are these: human respiratory syncytial virus.
In assay [23] the test system is Sindbis virus. In words: Minimum inhibitory concentration required to reduce Sindbis virus induced cytopathogenicity by 50%. In kind it is functional.
Assay [24] relates to Vesicular stomatitis virus. In words: Minimum inhibitory concentration required to reduce Vesicular stomatitis virus induced cytopathogenicity by 50%. In kind it is functional.
Assay [25] deals with Human alphaherpesvirus 3. As to the kind of experiment: Minimum inhibitory concentration required to reduce VZV induced cytopathogenicity by 50%. In kind it is functional.
Assay [26] has as its system Human immunodeficiency virus 2. As to the kind of experiment: Minimum inhibitory concentration required to reduce HIV-2 induced cytopathogenicity by 50%. In kind it is functional.

Converted amounts (≈) assume the structure as drawn. The source made the active and inactive calls. No cut-off for these calls is given here.

On to `O=c1[nH]c(=O)n(C2S[C@@H](CO)[C@H](O)[C@H]2O)cc1Br` (some centres not stated), for which the Cytotoxicity entry (in the assay on Coxsackievirus B4 [1]; in the assay with Human betaherpesvirus 5 [2]; in assay [3]; in the assay with Human alphaherpesvirus 2 [4]; in assay [5]; in the assay with Human alphaherpesvirus 1 [6]) was “inactive” in each case. The Cytotoxicity entry (in the assay on Human respirovirus 3 [7]; with Punta Toro virus [8]; in [9]; in [10]; with Sindbis virus [11]; with Human alphaherpesvirus 3 [12]) was “inactive” in each case. The Cytotoxicity result (in assay [13]; with Vaccinia virus) was “inactive” throughout.
For the molecule `Nc1ncnc2c1ncn2[C@@H]1S[C@@H](CO)[C@H](O)[C@H]1O`, the MIC (with Coxsackievirus B4 [14]; in assay [15]; against Human betaherpesvirus 5 [16]; with Human alphaherpesvirus 1 [17]; in the assay on Human alphaherpesvirus 2 [18]; with Human respirovirus 3 [19]) was 400 µg/mL (≈ 1410 µM) throughout. Besides, the MIC (in the assay on Punta Toro virus [20]; in [21]; in assay [22]; with Sindbis virus [23]; in assay [24]; in the assay on Human alphaherpesvirus 3 [25]) was 400 µg/mL (≈ 1410 µM) each time. The MIC in assay [26] turned out to be 400 µg/mL (≈ 1410 µM).
As to `O=c1[nH]c(=O)n(C2S[C@@H](CO)[C@H](O)[C@H]2O)cc1Cl` (some centres not stated), the Cytotoxicity entry (with Coxsackievirus B4 [1]; in the assay on Human betaherpesvirus 5 [2]; in [3]; in the assay with Human alphaherpesvirus 2 [4]; in assay [5]; in the assay on Human alphaherpesvirus 1 [6]) was “inactive” throughout. For the same molecule, the Cytotoxicity result (with Human respirovirus 3 [7]; in the assay on Punta Toro virus [8]; in assay [9]; in [10]; with Sindbis virus [11]; in the assay with Human alphaherpesvirus 3 [12]) was “inactive” throughout. Besides, the Cytotoxicity result (in [13]; in the assay with Vaccinia virus) was “inactive” throughout.
For the molecule `Nc1ccn(C2S[C@@H](CO)[C@H](O)[C@H]2O)c(=O)n1` (some centres not stated), the MIC (with Coxsackievirus B4 [14]; in assay [15]; against Human betaherpesvirus 5 [16]; against Human alphaherpesvirus 1 [17]; against Human alphaherpesvirus 2 [18]; in the assay on Human respirovirus 3 [19]) was 400 µg/mL (≈ 1540 µM) in each case. Moreover, the MIC (in the assay with Punta Toro virus [20]; in [21]; in assay [22]; in the assay with Sindbis virus [23]; in assay [24]; against Human alphaherpesvirus 3 [25]) was 400 µg/mL (≈ 1540 µM) throughout. Also, the MIC in assay [26] turned out to be 400 µg/mL (≈ 1540 µM).
As to `O=c1[nH]c(=O)n(C2S[C@@H](CO)[C@H](O)[C@H]2O)cc1F` (some centres not stated), the Cytotoxicity result (in the assay with Coxsackievirus B4 [1]; with Human betaherpesvirus 5 [2]; in assay [3]; in the assay on Human alphaherpesvirus 2 [4]; in assay [5]; in the assay with Human alphaherpesvirus 1 [6]) was “inactive” throughout. The Cytotoxicity result (in the assay with Human respirovirus 3 [7]; in the assay with Punta Toro virus [8]; in assay [9]; in assay [10]; in the assay on Sindbis virus [11]; in the assay on Human alphaherpesvirus 3 [12]) was “inactive” each time. The Cytotoxicity result (in [13]; in the assay with Vaccinia virus) was “inactive” in each case.
With `Cc1cn([C@H]2S[C@@H](CO)[C@H](O)[C@H]2O)c(=O)[nH]c1=O`, the MIC (in the assay with Coxsackievirus B4 [14]; in [15]; with Human betaherpesvirus 5 [16]; in the assay with Human alphaherpesvirus 1 [17]; against Human alphaherpesvirus 2 [18]; against Human respirovirus 3 [19]) was 400 µg/mL (≈ 1460 µM) each time. In addition, the MIC (against Punta Toro virus [20]; in assay [21]; in assay [22]; against Sindbis virus [23]; in assay [24]; in the assay on Human alphaherpesvirus 3 [25]) was 400 µg/mL (≈ 1460 µM) throughout. Besides, in assay [26], the MIC was found to be 400 µg/mL (≈ 1460 µM).
As for `Nc1ncnc2c1ncn2C1S[C@@H](COCc2ccccc2)[C@H](OCc2ccccc2)[C@H]1OCc1ccccc1` (some centres not stated), the Cytotoxicity result (with Coxsackievirus B4 [1]; in the assay on Human betaherpesvirus 5 [2]; in [3]; in the assay with Human alphaherpesvirus 2 [4]; in assay [5]; in the assay with Human alphaherpesvirus 1 [6]) was “inactive” throughout. The Cytotoxicity result (with Human respirovirus 3 [7]; in the assay with Punta Toro virus [8]; in [9]; in [10]; with Sindbis virus [11]; in the assay on Human alphaherpesvirus 3 [12]) was “inactive” in each case. In addition, the Cytotoxicity result (in [13]; with Vaccinia virus) was “inactive” each time.
With `C[C@@]1(n2ccc(N)nc2=O)CS[C@H](CO)O1`, the Cytotoxicity result (in the assay on Coxsackievirus B4 [1]; with Human betaherpesvirus 5 [2]; in assay [3]; in the assay with Human alphaherpesvirus 2 [4]; in assay [5]; in the assay on Human alphaherpesvirus 1 [6]) was “inactive” throughout. For the same molecule, the Cytotoxicity entry (in the assay with Human respirovirus 3 [7]; in the assay on Punta Toro virus [8]; in [9]; in assay [10]; in the assay with Sindbis virus [11]; in the assay with Human alphaherpesvirus 3 [12]) was “inactive” each time. Further, the Cytotoxicity result (in assay [13]; with Vaccinia virus) was “inactive” throughout.
Turning to `Nc1ncnc2c1ncn2[C@H]1S[C@@H](CO)[C@H](O)[C@H]1O`, the MIC (in the assay with Coxsackievirus B4 [14]; in assay [15]; in the assay on Human betaherpesvirus 5 [16]; against Human alphaherpesvirus 1 [17]; in the assay with Human alphaherpesvirus 2 [18]; in the assay with Human respirovirus 3 [19]) was 400 µg/mL (≈ 1410 µM) throughout. The MIC amounted to 400 µg/mL (≈ 1410 µM) with Punta Toro virus [20]; 48 µg/mL (≈ 169 µM) in assay [21]; 400 µg/mL (≈ 1410 µM) in assay [22]; 400 µg/mL (≈ 1410 µM) in the assay with Sindbis virus [23]; 400 µg/mL (≈ 1410 µM) in [24]; 400 µg/mL (≈ 1410 µM) against Human alphaherpesvirus 3 [25]. Also, the MIC in [26] was found to be 400 µg/mL (≈ 1410 µM).
Take `O=c1nc(-n2cncn2)ccn1C1S[C@@H](COCc2ccccc2)[C@H](OCc2ccccc2)[C@H]1OCc1ccccc1` (some centres not stated): the Cytotoxicity entry (in the assay with Coxsackievirus B4 [1]; with Human betaherpesvirus 5 [2]; in assay [3]; in the assay with Human alphaherpesvirus 2 [4]; in assay [5]; in the assay on Human alphaherpesvirus 1 [6]) was “inactive” each time. For the same molecule, the Cytotoxicity result (in the assay with Human respirovirus 3 [7]; with Punta Toro virus [8]; in assay [9]; in assay [10]; with Sindbis virus [11]; with Human alphaherpesvirus 3 [12]) was “inactive” throughout. The Cytotoxicity result (in assay [13]; with Vaccinia virus) was “inactive” in each case.
For `CC(=O)OC1S[C@@H](COCc2ccccc2)[C@H](OCc2ccccc2)[C@H]1OCc1ccccc1` (some centres not stated), the Cytotoxicity result (in the assay with Coxsackievirus B4 [1]; with Human betaherpesvirus 5 [2]; in assay [3]; in the assay with Human alphaherpesvirus 2 [4]; in assay [5]; in the assay with Human alphaherpesvirus 1 [6]) was “inactive” throughout. The Cytotoxicity result (with Human respirovirus 3 [7]; in the assay on Punta Toro virus [8]; in assay [9]; in assay [10]; in the assay on Sindbis virus [11]; in the assay on Human alphaherpesvirus 3 [12]) was “inactive” throughout. Further, the Cytotoxicity result (in assay [13]; in the assay with Vaccinia virus) was “inactive” each time.
Regarding `Nc1ccn(C2S[C@@H](COCc3ccccc3)[C@H](OCc3ccccc3)[C@H]2OCc2ccccc2)c(=O)n1` (some centres not stated), the Cytotoxicity entry (with Coxsackievirus B4 [1]; in the assay on Human betaherpesvirus 5 [2]; in assay [3]; in the assay with Human alphaherpesvirus 2 [4]; in assay [5]; with Human alphaherpesvirus 1 [6]) was “inactive” throughout. Further, the Cytotoxicity result (in the assay with Human respirovirus 3 [7]; in the assay on Punta Toro virus [8]; in assay [9]; in assay [10]; in the assay with Sindbis virus [11]; in the assay with Human alphaherpesvirus 3 [12]) was “inactive” in each case. Also, the Cytotoxicity result (in assay [13]; in the assay on Vaccinia virus) was “inactive” in each case.
Turning to `O=c1ccn([C@@H]2S[C@@H](CO)[C@H](O)[C@H]2O)c(=O)[nH]1`, the MIC (in the assay on Coxsackievirus B4 [14]; in assay [15]; in the assay on Human betaherpesvirus 5 [16]; in the assay on Human alphaherpesvirus 1 [17]; against Human alphaherpesvirus 2 [18]; against Human respirovirus 3 [19]) was 400 µg/mL (≈ 1540 µM) each time. For the same molecule, the MIC (in the assay with Punta Toro virus [20]; in assay [21]; in [22]; against Sindbis virus [23]; in assay [24]; against Human alphaherpesvirus 3 [25]) was 400 µg/mL (≈ 1540 µM) throughout. For the same molecule, the MIC in [26] worked out at 400 µg/mL (≈ 1540 µM).
